Here are results for four compounds from US20260168988A1, “GENETICALLY ENCODED REPORTER EXPRESSION SYSTEMS AND METHODS OF MAKING AND USING SAME” (Duke University, priority 2021, published 2026).

Entries after “also recorded” stand apart in the source; their conditions may differ.

What all share (type): cell-based
Assay [1] deals with METTL3. Description: m6A sensor system in METTL3 degron cells treated with auxin. As to conditions: METTL3 degron HEK293T cells, auxin 48 hours, compared to DMSO-treated cells. As for the experimental part: To confirm that the m^6A sensor is METTL3-dependent, the m^6A sensor system was expressed in HEK293T cells which contain an auxin-inducible degradation tag at the endogenous METTL3 locus (METTL3 degron cells). Cells were treated with auxin for 48 hours and then transfected with the m^6A sensor system. […] Conversely, overexpression of METTL3 causes increased GFP fluorescence, a higher GFP:GFP-DHFR ratio, and increased C-to-U editing of the sensor sequence (FIGS. 5A-5C).

For a further assay, the system named is NMD. Description: m6A reporter mRNA levels after blocking nonsense-mediated decay (RT-qPCR). Conditions: HEK293T cells expressing the m6A sensor system, CHX for 24 h. As for the experimental part: HEK293T cells expressing the m6A sensor system were treated with CHX for 24 h to inhibit NMD, followed by RT-qPCR of the m^6A reporter mRNA.
The possibility that the m^6A reporter mRNA could be susceptible to nonsense-mediated decay (NMD), since editing of the m6A reporter mRNA produces premature stop codons, was investigated. However, this is unlikely since most NMD requires the presence of the exon junction complex (EJC), and the m^6A reporter transcript lacks introns.
A general note: Real-time PCR tracks product formation cycle by cycle.

The next assay has as its system APO1-YTH. Description: Inducible APO1-YTH expression in HEK293T stable m6A reporter cell lines. Conditions: time courses of dox induction. From the text: HEK293T stable cells were generated which express both the m^6A reporter and APO1-YTH. The m^6A reporter was constitutively expressed from the CMV reporter, while APO1-YTH was inducibly expressed after treatment of cells with doxycycline (dox).
Cyclophilin A (CycloA) is shown as a loading control.
Another embodiment of the present disclosure provides stable cell lines that express the m^6A reporter system as provided herein. To do this, stable cell lines expressing both the m^6A reporter and APO1-YTH were generated by transfecting HEK293T cells with a dual-promoter plasmid encoding both components of the reporter system. This plasmid drives m^6A reporter expression from the CMV promoter and APO1-YTH expression using an inducible […] promoter. However, any dual-promoter system could also be used and different promoters (inducible and constitutive) could also be used with this m^6A reporter system. The m^6A reporter system provided herein may also be applied in other mammalian and non-mammalian cell types as well.
Following selection of stable cells with puromycin resistance which was conferred by genomic integration of the plasmid, it was next sought to confirm that the reporter system works in the context of stable integration of the m^6A reporter and APO1-YTH components. […]

The target in assay [2] is T1, METTL3 (Homo sapiens, UniProt Q86U44).
T1 construct: endogenous in cells; host or cells: HEK293T
T1 sequence (Q86U44 2-580 limits assumed): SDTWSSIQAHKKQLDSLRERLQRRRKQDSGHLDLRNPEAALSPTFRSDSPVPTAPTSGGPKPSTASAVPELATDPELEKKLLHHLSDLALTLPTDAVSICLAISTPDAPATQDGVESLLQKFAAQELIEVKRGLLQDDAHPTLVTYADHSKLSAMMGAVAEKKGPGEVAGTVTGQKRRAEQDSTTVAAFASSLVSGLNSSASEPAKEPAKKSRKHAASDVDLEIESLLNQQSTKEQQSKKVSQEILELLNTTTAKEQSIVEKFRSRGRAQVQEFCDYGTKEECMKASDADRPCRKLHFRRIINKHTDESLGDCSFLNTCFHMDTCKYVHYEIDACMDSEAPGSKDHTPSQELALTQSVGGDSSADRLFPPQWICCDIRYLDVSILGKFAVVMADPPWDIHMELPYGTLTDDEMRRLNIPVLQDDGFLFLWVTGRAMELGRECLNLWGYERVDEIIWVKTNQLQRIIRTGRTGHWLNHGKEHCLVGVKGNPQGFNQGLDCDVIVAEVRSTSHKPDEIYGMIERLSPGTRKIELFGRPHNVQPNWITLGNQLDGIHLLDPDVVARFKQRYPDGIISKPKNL
T1 sequence (Q9HCE5 whole entry partner): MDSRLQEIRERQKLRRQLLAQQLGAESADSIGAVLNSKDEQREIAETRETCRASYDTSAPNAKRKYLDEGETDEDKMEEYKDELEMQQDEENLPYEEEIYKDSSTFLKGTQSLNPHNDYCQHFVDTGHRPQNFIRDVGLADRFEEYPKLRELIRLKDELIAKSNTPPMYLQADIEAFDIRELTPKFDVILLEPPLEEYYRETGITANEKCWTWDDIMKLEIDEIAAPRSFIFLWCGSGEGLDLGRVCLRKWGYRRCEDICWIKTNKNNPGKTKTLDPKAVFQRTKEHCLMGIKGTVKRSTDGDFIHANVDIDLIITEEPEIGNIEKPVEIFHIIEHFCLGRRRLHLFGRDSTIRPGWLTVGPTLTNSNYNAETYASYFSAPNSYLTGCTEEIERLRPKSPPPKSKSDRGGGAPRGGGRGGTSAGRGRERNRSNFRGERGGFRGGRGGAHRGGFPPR
Description: m6A sensor system in HEK293T cells treated with METTL3 inhibitor. Conditions: HEK293T cells expressing the m6A sensor system, after treatment.

For the compound `O=C(O)Cc1c[nH]c2ccccc12` [auxin], in the assay on METTL3 [1], the “C-to-U editing of the m6A sensor sequence (RT-PCR/Sanger sequencing)” value (from here on “C-to-U editing … (RT-PCR/Sanger sequencing)”) is listed as “decreased C-to-U editing” and the “GFP:GFP-DHFR ratio (western blot)” value was “reduced GFP:GFP-DHFR ratio”. In addition, in the assay on METTL3 [1] (listed as Auxin), the “C-to-U editing … (RT-PCR/Sanger sequencing)” value is recorded as “reduced C-to-U editing”. In the assay with METTL3 [1] (then transfected, assessed 24 hours later), the “GFP fluorescence of m6A sensor” value was “greatly diminished; also recorded: reduced m^6A sensor fluorescence”.

Consider `C[C@@H]1C[C@@H]([C@H](O)CC2CC(=O)NC(=O)C2)C(=O)[C@@H](C)C1` [cycloheximide], for which, in the assay with NMD, the “levels of the m6A reporter mRNA (RT-qPCR)” value is given as “did not cause changes”.

With `C[C@H]1c2cccc(O)c2C(=O)C2=C(O)[C@]3(O)C(=O)C(C(N)=O)=C(O)[C@@H](N(C)C)[C@@H]3[C@@H](O)[C@@H]21` [doxycycline], in the assay with APO1-YTH, the “duration of dox treatment sufficient for APO1-YTH induction and EGFP fluorescence” value is 24 h.

Take STM2457: on METTL3 [2], the “C-to-U editing … (RT-PCR/Sanger sequencing)” value is on record as “lower levels of C-to-U editing; also recorded: reduced C-to-U editing”, the “GFP fluorescence of m6A sensor system” value is reported as “reduces GFP fluorescence” and the “GFP protein (Western blot)” value was “reduced GFP protein; also recorded: reduction of GFP expression”.
